Source: ChEMBL document CHEMBL1697821, “Development of a phospholipidosis database and predictive quantitative structure-activity relationship (QSAR) models” (Toxicol Mech Methods, 2008)

test system: Phospholipidosis; experiment: Literature-mined public compounds from Kruhlak et al phospholipidosis modelling dataset

| SMILES | Phospholipidosis |
| --- | --- |
| CN[C@@H](C)[C@@H](O)c1ccccc1 [PSEUDOEPHEDRINE] | Negative: based on the absence of positive reported data from WMDD |
| Clc1ccc(C/C(=C\CN2CCCC2)c2ccccc2)cc1 [PYRROBUTAMINE] | Negative: based on the absence of positive reported data from WMDD |
| CCN(CC)CCCC(C)Nc1c2ccc(Cl)cc2nc2ccc(OC)cc12 (centres undefined) [QUINACRINE] | Positive: strong inducer confirmed by electron microscopy |
| CCC1NC(=O)c2cc(S(N)(=O)=O)c(Cl)cc2N1 (centres undefined) [QUINETHAZONE] | Negative: based on the absence of positive reported data from WMDD |
| C=C[C@H]1C[N@@]2CC[C@H]1C[C@@H]2[C@@H](O)c1ccnc2ccc(OC)cc12 [QUINIDINE] | Positive: weak inducer based on presence of foamy macrophages and cytoplasmic vacuolations |
| CC(CN1CC(=O)NC(=O)C1)N1CC(=O)NC(=O)C1 (centres undefined) [RAZOXANE] | Negative: based on the absence of positive reported data from WMDD |
| CC1=C(/C=C/C(C)=C/C=C/C(C)=C/CO)C(C)(C)CCC1 [RETINOL] | Negative: based on the absence of positive reported data from WMDD |
| NC(=O)c1ncn([C@@H]2O[C@H](CO)[C@@H](O)[C@H]2O)n1 [RIBAVIRIN] | Negative: based on the absence of positive reported data from WMDD |
| Cc1cc2nc3c(=O)[nH]c(=O)nc-3n(C[C@H](O)[C@H](O)[C@H](O)COP(=O)(O)O)c2cc1C [RIBOFLAVIN 5'-PHOSPHATE] | Negative: based on the absence of positive reported data from WMDD |
| Cc1cc2nc3c(=O)[nH]c(=O)nc-3n(C[C@H](O)[C@H](O)[C@H](O)CO)c2cc1C [RIBOFLAVIN] | Negative: based on the absence of positive reported data from WMDD |
| CCn1nc(C)c2c1C(c1ccccc1)=NCC(=O)N2 [RIPAZEPAM] | Negative: based on the absence of positive reported data from WMDD |
| CN(C)CCc1c[nH]c2ccc(Cn3cncn3)cc12 [RIZATRIPTAN] | Negative: based on the absence of positive reported data from WMDD |
| CS(=O)(=O)c1ccc(C2=C(c3ccccc3)C(=O)OC2)cc1 [ROFECOXIB] | Negative: based on the absence of positive reported data from WMDD |
| CCCC(=O)O[C@H]1[C@H](C)O[C@@H](O[C@H]2[C@H](N(C)C)[C@@H](O)[C@H](O[C@H]3[C@@H](CC=O)C[C@@H](C)[C@@H](O)/C=C/C=C/C[C@@H](C)OC(=O)C[C@@H](O)[C@@H]3OC)O[C@@H]2C)C[C@@]1(C)OC(=O)CC [ROKITAMYCIN] | Negative: based on the absence of positive reported data from WMDD |
| O=C(Oc1ccccc1C(=O)O)c1ccccc1O [SALSALATE] | Negative: based on the absence of positive reported data from WMDD |
| C=CCC1(C(C)CCC)C(=O)NC(=O)NC1=O (centres undefined) [SECOBARBITAL] | Negative: based on the absence of positive reported data from WMDD |
| C#CCN(C)[C@H](C)Cc1ccccc1 [SELEGILINE] | Negative: based on the absence of positive reported data from WMDD |
| O=C(O)c1cc(O)c2c(c1)[C@@H]([C@H]1c3cc(C(=O)O)cc(O)c3C(=O)c3c(O[C@@H]4O[C@H](CO)[C@@H](O)[C@H](O)[C@H]4O)cccc31)c1cccc(O[C@@H]3O[C@H](CO)[C@@H](O)[C@H](O)[C@H]3O)c1C2=O [SENNOSIDE B] | Negative: based on the absence of positive reported data from WMDD |
| CN[C@H]1CC[C@@H](c2ccc(Cl)c(Cl)c2)c2ccccc21 [SERTRALINE] | Positive: weak inducer based on presence of foamy macrophages and cytoplasmic vacuolations |
| OC[C@@H](O)[C@@H](O)[C@H](O)[C@@H](O)CO [SORBITOL] | Negative: based on the absence of positive reported data from WMDD |

| SMILES | Phospholipidosis |
| --- | --- |
| CC(C)NCC(O)c1ccc(NS(C)(=O)=O)cc1 (centres undefined) [SOTALOL] | Negative: confirmed by electron microscopy |
| CN[C@@H]1[C@H](O)[C@H](NC)[C@H]2O[C@@]3(O)C(=O)C[C@@H](C)O[C@H]3O[C@@H]2[C@H]1O [SPECTINOMYCIN] | Positive: weak inducer based on presence of foamy macrophages and cytoplasmic vacuolations |
| O=C1CSC2(CCN(CCCN3c4ccccc4Sc4ccc(Cl)cc43)CC2)N1 [SPICLOMAZINE] | Negative: based on the absence of positive reported data from WMDD |
| N=C(N)c1ccc(/C=C/c2ccc(C(=N)N)cc2)cc1 [STILBAMIDINE] | Positive: weak inducer based on presence of foamy macrophages and cytoplasmic vacuolations |
| [H]/N=C(/N)N[C@H]1[C@H](O)[C@@H](O)[C@H](O[C@@H]2O[C@@H](C)[C@](O)(C=O)[C@H]2O[C@@H]2O[C@@H](CO)[C@H](O)[C@@H](O)[C@@H]2NC)[C@@H](N/C(N)=N\[H])[C@@H]1O [STREPTOMYCIN] | Negative: based on the absence of positive reported data from WMDD |
| O=C1C[C@@H]2OCC=C3CN4CC[C@]56c7ccccc7N1[C@H]5[C@H]2[C@H]3C[C@H]46 [STRYCHNINE] | Negative: based on the absence of positive reported data from WMDD |
| O=C(O)CCC(=O)O [SUCCINIC ACID] | Negative: based on the absence of positive reported data from WMDD |
| COc1cc(NS(=O)(=O)c2ccc(N)cc2)nc(OC)n1 [SULFADIMETHOXINE] | Negative: based on the absence of positive reported data from WMDD |
| COc1ncnc(NS(=O)(=O)c2ccc(N)cc2)c1OC [SULFADOXINE] | Negative: based on the absence of positive reported data from WMDD |
| Cc1cc(NS(=O)(=O)c2ccc(N)cc2)no1 [SULFAMETHOXAZOLE] | Negative: confirmed by electron microscopy |
| O=C1OC(c2ccc(O)c(S(=O)(=O)O)c2)(c2ccc(O)c(S(=O)(=O)O)c2)c2c(Br)c(Br)c(Br)c(Br)c21 [SULFOBROMOPHTHALEIN] | Negative: based on the absence of positive reported data from WMDD |
| Cc1ccc(C(=O)Nc2ccc(S(=O)(=O)O)c3cc(S(=O)(=O)O)cc(S(=O)(=O)O)c23)cc1NC(=O)c1cccc(NC(=O)Nc2cccc(C(=O)Nc3cc(C(=O)Nc4ccc(S(=O)(=O)O)c5cc(S(=O)(=O)O)cc(S(=O)(=O)O)c45)ccc3C)c2)c1 [SURAMIN] | Positive: weak inducer based on presence of foamy macrophages and cytoplasmic vacuolations |
| C[N+](C)(C)CCOC(=O)CCC(=O)OCC[N+](C)(C)C [SUXAMETHONIUM] | Negative: based on the absence of positive reported data from WMDD |
| CC/C(=C(\c1ccccc1)c1ccc(OCCN(C)C)cc1)c1ccccc1 [TAMOXIFEN] | Positive: strong inducer confirmed by electron microscopy |
| C[C@]1(Cn2ccnn2)[C@H](C(=O)O)N2C(=O)C[C@H]2S1(=O)=O [TAZOBACTAM] | Negative: based on the absence of positive reported data from WMDD |
| COc1cc2nc(N3CCN(C(=O)C4CCCO4)CC3)nc(N)c2cc1OC (centres undefined) [TERAZOSIN] | Negative: based on the absence of positive reported data from WMDD |
| CN(C/C=C/C#CC(C)(C)C)Cc1cccc2ccccc12 [TERBINAFINE] | Negative: based on the absence of positive reported data from WMDD |
| CC(C)(C)NCC(O)c1cc(O)cc(O)c1 (centres undefined) [TERBUTALINE] | Negative: based on the absence of positive reported data from WMDD |
| CC1(O)CCC(C(C)(C)O)CC1.O (centres undefined) [TERPIN HYDRATE] | Negative: based on the absence of positive reported data from WMDD |
